Source: paper PMC5503534, “Stable aneuploid tumors cells are more sensitive to TTK inhibition than chromosomally unstable cell lines” (Oncotarget, 2017)
Where two headings read alike, the source gives them in different places.

Key:
[1] = system: patient-derived colorectal carcinoma organoids; experiment: Organoids drug sensitivity and viability assay; format: cell-based, human
Protocol: The establishment and characterization of the human colon cancer organoids has been described. The organoids were cultured in drops of Geltrex LDEV-Free Reduced Growth Factor Basement Membrane Matrix (Gibco, cat no. A1413202) in DMEM/F12 medium (Thermo), supplemented with 1% (v/v) penicillin/streptomycin (Gibco), 1% Hepes buffer, pH7.5, 1% L-glutamine (Gibco), 1 μg/mL R-spondin (Sigma), 100 ng/mL Noggin (Peprotech), B27 vitamin A-free (Invitrogen, cat no. 12587010), 1 mM n-acetyl cysteine (Sigma), 10 mM nicotinamide (Sigma), 50 ng/mL EGF (BD Biosciences), 500 nM A83-01 (Tocris), 10 μM SB202190 (Sigma), 10 μM Y-27632 (Sigma) and 10 nM Prostaglandin E2 (Cayman). Medium was refreshed every four days and organoids were splitted by treatment with TryPLE Express (Gibco, cat. no. 12604013).
Organoids were dissociated by TryPLE Express treatment and filtered using a 40 μm nylon cell strainer (Falcon). The organoids were re-suspended in Geltrex at a density of 250,000 cells/mL and seeded in the wells of 96-well plates (Corning, cat no. 3903) at 10 μl per well. Compounds were added four days after plating and 72 hours later viability was determined using Cell-Titer Glo 3D Cell Viability Assay (Promega, Madison USA). Experiments were performed in three biological replicates and technical triplicates were averaged per experiment.

[2] = system: HCT 116 colon carcinoma cell line; experiment: Cell proliferation assay (ATPlite), HCT 116; format: cell-based, human
Protocol: (§1) Cell proliferation assays were carried out as described using ATPlite 1step™ (Perkin Elmer, Groningen, The Netherlands). Exposure time was 72 or 120 hours as indicated in the Legends to the Figures. Percentage growth was calculated, relative to the growth of unexposed cells, and relative IC50s were fitted using a four-parameter logistics curve (XLfit 5.3, IDBS). For Figure 4A and 7 dose response curves were redrawn in Prism. To compare the inhibitory potency of compounds in proliferation assays with HCT 116 parental and tetraploid clones, pIC50 (−^10logIC50) values were compared in three independent experiments. A two-tailed Student's t-test was performed to determine whether differences in sensitivity (ΔpIC50) were statistically significant. Caspase 3/7 activity of cancer cells was measured using Caspase-Glo 3/7 Assay kit (cat no. G8093, Promega, Madison USA). Viability of T-ALL cell samples was determined using ATPlite and exposure of 72 hours as described previously.

[3] = system: A-172 glioblastoma cell line; experiment: Cell proliferation assay (ATPlite), A-172; format: cell-based, human; details: 5 day proliferation assay
Protocol: as §1

[4] = system: post-tetraploid HPT1 cells; experiment: Cell proliferation assay, post-tetraploid HPT1; format: cell-based, human; details: HPT1, five days
Protocol: Cancer cell lines and hTERT-RPE1 retinal pigment epithelial cells were purchased from the American Type Culture Collection (ATCC) (Manassas, VA, U.S.A.) from 2011 to 2014 [41] and cultured in ATCC-recommended media. All experiments were carried out within nine passages of the original vials from ATCC who authenticated the cancer cell lines by short tandem repeat analysis. We verified the mutant status of seven frequently mutated cancer genes (i.e., BRAF, CDKN2A, CTNNB1, EGFR, KRAS, PIK3CA and TP53) by full exome or targeted sequencing. Sequencing results were compared to COSMIC version 75 of the Genomics of Drug Sensitivity in Cancer data base and provided additional authentication of the identity of the cell lines. The isolation and characterization of post-tetraploid clones from HCT 116 has been described previously. The mutation status of the CDKN2A, CTNNB1, KRAS and PIK3CA genes were confirmed by sequence analysis in both the HCT 116 parental cell line and post-tetraploid clones. All experiments were carried out within nine passages of the original cell stocks that were transferred from the Max Planck Institute of Biochemistry (Martinsried, Germany) to Netherlands Translational Research Center.
as §1

[5] = system: pediatric T-ALL patient cell samples; experiment: Viability assays with T-ALL patient samples; format: cell-based, human; details: read-out: IC50
Protocol: Written informed consent was obtained from the parents or legal guardians of each T-ALL patient to use excess diagnostic material for research purposes. The study was performed in accordance with the Institutional Review Board of the Erasmus Medical Center Rotterdam (The Netherlands) and in accordance with the Declaration of Helsinki. Leukemic cells were harvested from blood or bone marrow samples and were enriched to ≥ 90% purity.
as §1

[6] = system: DoTc2 4510 cervix carcinoma cell line; experiment: Cell proliferation assay (ATPlite), DoTc2 4510; format: cell-based, human; details: 5 day proliferation assay
Protocol: as §1

full-length Aurora B = target: T1, full-length Aurora B (Homo sapiens, UniProt Q96GD4); experiment: Surface plasmon resonance binding kinetics, Aurora B; details: SPR
T1 construct: to the kinase domain of TTK and full-length Aurora B; purchased Carna Biosciences, Inc., Kobe, Japan; host or cells: Sf9 insect cells
T1 sequence (Q96GD4 whole entry, the tested form may be a part): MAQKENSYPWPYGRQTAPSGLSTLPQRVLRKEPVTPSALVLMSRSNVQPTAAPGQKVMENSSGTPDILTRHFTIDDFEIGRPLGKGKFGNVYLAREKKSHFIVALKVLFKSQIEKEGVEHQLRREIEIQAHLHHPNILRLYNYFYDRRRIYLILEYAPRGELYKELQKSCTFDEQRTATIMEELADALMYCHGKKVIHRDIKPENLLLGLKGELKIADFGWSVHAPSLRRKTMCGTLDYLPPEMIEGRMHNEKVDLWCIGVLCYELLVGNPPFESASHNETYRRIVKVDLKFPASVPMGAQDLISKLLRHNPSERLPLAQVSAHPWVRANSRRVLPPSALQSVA
From the text: Originally, the compound was identified in a phenotypic screen for molecules that can induce stem-cell like phenotypes. Later this property was attributed to its ability to inhibit the mitotic kinase Aurora B [39].

[7] = system: A-172 glioblastoma cell line; details: three day cell proliferation assay; cited from earlier work

## CCc1cccc(CC)c1NC(=O)c1ccn2c1CCc1cnc(Nc3ccc(N4CCN(C)CC4)cc3OC)nc1-2 [NTRC 0066-0]
[1]; All organoids, NTRC 0066-0 vs reversine
  ΔpIC50: 1.17
[1]; All organoids, geometric average
  pIC50: 7.59
[1]; organoid p14, NTRC 0066-0 vs reversine
  ΔpIC50: 1.34
[1]; organoid p14, three days
  pIC50: 7.65
[1]; organoid p14, three days, read-out: IC50
  IC50: 0.0225 µM
[1]; organoid p18, three days
  pIC50: 7.68
[1]; organoid p18, three days, read-out: IC50
  IC50: 0.0221 µM
[1]; organoid p28, NTRC 0066-0 vs reversine
  ΔpIC50: 1.22
[1]; organoid p28, three days
  pIC50: 7.43
[1]; organoid p28, three days, read-out: IC50
  IC50: 0.037 µM
[1]; organoids
  times more potent than reversine: 10 times
[1]; organoids from three different patients, read-out: average IC50
  IC50: 0.027 µM
[2]; 5 day proliferation assay, HCT 116 (Suppl. Table 1)
  IC50: 0.041 µM
[2]; HCT 116, five days, maximum inhibitory effect, average of three experiments
  Eff. (%): 80%
[2]; HCT 116 near-diploid, five days, geometric average of three experiments (Suppl. Table 2A)
  IC50: 0.044 µM
[3]
  IC50: 0.034 µM
[4]; average of three experiments
  Efficacy (%): 59%
[4]; geometric average of three experiments
  IC50: 0.04 µM
[5]; all ten T-ALL patient samples, three days
  IC50: ≥ 5 µM
[5]; patient sample 491, three-day assay
  IC50: 5 µM
[5]; patient sample 1033, three-day assay
  IC50: 5.1 µM
[5]; patient sample 1816, three-day assay
  IC50: 8.1 µM
[5]; patient sample 2323, three-day assay
  IC50: 7.1 µM
[5]; patient sample 3594, three-day assay
  IC50: 4.8 µM
[5]; patient sample 3852, three-day assay
  IC50: 4.9 µM
[5]; patient sample 4023, three-day assay
  IC50: 5.4 µM
[5]; patient sample 4126, three-day assay
  IC50: 9.2 µM
[5]; patient sample 4992, three-day assay
  IC50: 4.9 µM
[5]; patient sample 10110, three-day assay
  IC50: 4.5 µM
[6]
  IC50: 0.225 µM
full-length Aurora B; KD = kd/ka
  Kd: 0.907 µM
full-length Aurora B; geometric average
  ka: 13400 M⁻¹ s⁻¹
  kd: 0.0122 s⁻¹
[7]
  IC50: 0.051 µM
